Target: T1, human GLP-1 receptor (Homo sapiens, UniProt P43220)
T1 construct: expressed in transfected cells
Experiment: GLP-1R cAMP Assay
Assay type: cell-based
Conditions: cAMP accumulation in CHO cells stably overexpressing the human GLP-1 receptor; 30 min treatment; HitHunter cAMP kit; read-out: EC50
In short: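 Luminescent enzyme-complementation detection of cAMP, read after cell lysis and overnight incubation, with dose-response curve fitting. Stimulation lasted 30 min, using 20-point triplicate dosing on CHO cells (10,000 per well) stably overexpressing human GLP-1R.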

T1 sequence (P43220 24-463): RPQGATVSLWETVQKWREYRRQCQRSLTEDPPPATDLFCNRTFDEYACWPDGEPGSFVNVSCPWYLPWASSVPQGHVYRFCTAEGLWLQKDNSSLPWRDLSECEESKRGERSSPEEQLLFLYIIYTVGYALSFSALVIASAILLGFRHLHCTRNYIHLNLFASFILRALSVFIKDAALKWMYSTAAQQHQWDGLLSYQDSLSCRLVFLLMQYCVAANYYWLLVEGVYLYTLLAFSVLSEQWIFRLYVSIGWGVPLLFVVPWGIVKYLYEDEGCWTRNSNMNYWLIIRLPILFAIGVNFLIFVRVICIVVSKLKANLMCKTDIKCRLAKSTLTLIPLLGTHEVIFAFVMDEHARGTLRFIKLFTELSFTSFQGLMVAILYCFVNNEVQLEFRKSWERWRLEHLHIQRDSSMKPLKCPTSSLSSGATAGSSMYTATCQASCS

| SMILES | EC50 |
| --- | --- |
| O=C(O)c1ccc2nc(CN3CCN(C(=O)c4cccc(Oc5ccc(C(F)(F)F)cc5Cl)c4)CC3)n(C[C@@H]3CCO3)c2c1 [Example 2, (S)-2-((4-(3-(2-Chloro-4-(trifluoromethyl)phenoxy)benzoyl)piperazin-1-yl)methyl)-1-(oxetan-2-ylmethyl)-1H-benzo[d]imidazole-6-carboxylic acid] | > 0.5 µM |
| CCn1cncc1Cn1c(CN2CCC(C#N)(Cc3ccnc(COc4ccc(Cl)cc4Cl)c3)CC2)nc2ccc(C(=O)O)cc21 [Example 189, 2-((4-Cyano-4-((2-((2,4-dichlorophenoxy)methyl)pyridin-4-yl)methyl)piperidin-1-yl)methyl)-1-((1-ethyl-1H-imidazol-5-yl)methyl)-1H-benzo[d]imidazole-6-carboxylic acid] | < 0.05 µM |
| N#Cc1cc(F)ccc1OCc1nccc(OC2CCN(Cc3nc4c(F)cc(C(=O)O)cc4n3C[C@@H]3CCO3)CC2)n1 [Compound 307] | < 0.05 µM |
| Cc1ccc(N(C)c2cc(F)cc(C(=O)N3CCN(Cc4nc5ccc(C(=O)O)cc5n4C[C@@H]4CCO4)CC3)c2)c(Cl)c1 [Compound 100, 2-[(4-{3-[(2-chloro-4-methylphenyl)(methyl)amino]-5-fluorobenzoyl}piperazin-1-yl)methyl]-1-{[(2S)-oxetan-2-yl]methyl}-1H-1,3-benzodiazole-6-carboxylic acid] | < 0.05 µM |
| C[C@H]1C[C@H](Oc2cccc(COc3ccc(Cl)cc3F)n2)CCN1Cc1nc2ccc(C(=O)O)cc2n1C[C@@H]1CCO1 [Compound 290, 2-{[(2S,4R)-4-({6-[(4-chloro-2-fluorophenoxy)methyl]pyridin-2-yl}oxy)-2-methylpiperidin-1-yl]methyl}-1-{[(2S)-oxetan-2-yl]methyl}-1H-1,3-benzodiazole-6-carboxylic acid] | < 0.05 µM |
| CCn1cncc1Cn1c(CN2CCC(Oc3ccnc(COc4ccc(C#N)cc4F)n3)CC2)nc2ccc(C(=O)O)cc21 [Example 261, 2-((4-((2-((4-Cyano-2-fluorophenoxy)methyl)pyrimidin-4-yl)oxy)piperidin-1-yl)methyl)-1-((1-ethyl-1H-imidazol-5-yl)methyl)-1H-benzo[d]imidazole-6-carboxylic acid] | < 0.05 µM |
| N#Cc1cc(Cl)ccc1OCc1cccc(OC2CCN(Cc3nc4ccc(C(=O)O)cc4n3Cc3cnco3)CC2)n1 [Compound 252, 2-{[4-({6-[(4-chloro-2-cyanophenoxy)methyl]pyridin-2-yl}oxy)piperidin-1-yl]methyl}-1-[(1,3-oxazol-5-yl)methyl]-1H-1,3-benzodiazole-6-carboxylic acid] | > 0.5 µM |
| Cc1ccc(C(C)c2cccc(C(=O)N3CCN(Cc4nc5ccc(C(=O)O)cc5n4C[C@@H]4CCO4)CC3)c2)c(Cl)c1 (stereo partly drawn) [Example 112, 2-((4-(3-(1-(2-Chloro-4-methylphenyl)ethyl)benzoyl)piperazin-1-yl)methyl)-1-(((S)-oxetan-2-yl)methyl)-1H-benzo[d]imidazole-6-carboxylic acid] | 0.05 to 0.5 µM |
| Cc1ccc(N(C)c2cccc(CC3=CCN(Cc4nc5ccc(C(=O)O)cc5n4C[C@@H]4CCO4)CC3)c2)c(Cl)c1 [Compound 117, 2-{[4-({3-[(2-chloro-4-methylphenyl)(methyl)amino]phenyl}methyl)-1,2,3,6-tetrahydropyridin-1-yl]methyl}-1-{[(2S)-oxetan-2-yl]methyl}-1H-1,3-benzodiazole-6-carboxylic acid] | 0.05 to 0.5 µM |
| N#Cc1ccc(OCc2nccc(OC3CCN(Cc4nc5ccc(C(=O)O)nc5n4C[C@@H]4CCO4)CC3)n2)c(F)c1 [Compound 373] | < 0.05 µM |
| N#Cc1ccc(COc2cccc(N3CCN(C(=O)c4ccc(-c5nnn[nH]5)nc4)CC3)n2)c(F)c1 [Example 92, 4-(((6-(4-(6-(1H-Tetrazol-5-yl)nicotinoyl)piperazin-1-yl)pyridin-2-yl)oxy)methyl)-3-fluorobenzonitrile] | 0.05 to 0.5 µM |
